Source: patent US9023789B2, “Amylin analogs and pharmaceutical compositions thereof” (Novo Nordisk A/S, priority 2012, dated 2015)
In brackets after ≈: the same amount, converted by molar mass. Like-named read-outs stand apart in the source and are kept apart here. Numbered stars: 1 amine (or outer) side, 2 acyl side, 3 side chain; on linkers, the order of the positions; unused ones are H or OH. Bridge positions count the residues as written; N and C are the ends. Side chains are listed from the residue outwards. Peptide text beside a SMILES is read from it. * marks the point of attachment. C20 diacid = O=C(O)CCCCCCCCCCCCCCCCCCC(=O)*; γGlu = O=C(O)[C@H](CCC(=O)[*:2])N[*:1]

Assays:
[1] = ASSAY (IV) determination of solubility; assay type: physicochemical
How it was run: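 Dissolve polypeptide in water ([…] stock); combine 1:1 with each 100 mM buffer (glycylglycine pH 3.0/4.0/5.0; bistrispropane pH 6.0/6.5/7.0/7.5/8.0); hold 18 hours at room temperature; centrifuge; quantify polypeptide by UPLC.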

[2] = target: T1, human amylin receptor (membranes from Amylin 3(a)/CRE-luc cells) (Homo sapiens, UniProt O60896+P30988); experiment: ASSAY (V) binding to the human amylin receptor (SPA, 125I-rat amylin);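 note: competition binding of cell membranes (35 ng/µL) mixed with SPA beads in 384-well plates at 40 µL total volume, read by scintillation counting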
T1 construct: expressed in transfected cells
T1 sequence (P30988 25-474): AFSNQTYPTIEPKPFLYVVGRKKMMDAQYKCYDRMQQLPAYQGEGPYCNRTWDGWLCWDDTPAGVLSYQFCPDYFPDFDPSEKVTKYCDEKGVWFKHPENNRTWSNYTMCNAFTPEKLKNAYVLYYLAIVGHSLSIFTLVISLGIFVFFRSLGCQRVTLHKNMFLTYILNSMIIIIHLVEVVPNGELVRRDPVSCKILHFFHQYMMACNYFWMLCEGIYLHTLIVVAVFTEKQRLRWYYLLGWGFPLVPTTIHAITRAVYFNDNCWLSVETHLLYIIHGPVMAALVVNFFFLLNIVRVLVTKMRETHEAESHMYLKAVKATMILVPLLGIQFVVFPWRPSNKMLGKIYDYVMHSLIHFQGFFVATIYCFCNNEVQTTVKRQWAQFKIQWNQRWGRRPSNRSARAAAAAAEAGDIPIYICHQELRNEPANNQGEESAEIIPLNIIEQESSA
T1 sequence (O60896 24-148 partner): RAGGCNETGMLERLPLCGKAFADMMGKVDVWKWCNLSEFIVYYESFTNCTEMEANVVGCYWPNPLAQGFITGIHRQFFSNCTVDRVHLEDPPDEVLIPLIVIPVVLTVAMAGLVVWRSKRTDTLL

[3] = target: T2, rat calcitonin receptor (Rattus norvegicus, UniProt P32214); experiment: ASSAY (VIII) binding to the rat calcitonin receptor; details: Table 7, read-out: rCTR bind IC50
T2 construct: expressed in transfected cells; host or cells: BHK tk'ts 13 (transient, FuGENE 6), membranes
T2 sequence (P32214 25-479 isoform P32214-2 limits assumed): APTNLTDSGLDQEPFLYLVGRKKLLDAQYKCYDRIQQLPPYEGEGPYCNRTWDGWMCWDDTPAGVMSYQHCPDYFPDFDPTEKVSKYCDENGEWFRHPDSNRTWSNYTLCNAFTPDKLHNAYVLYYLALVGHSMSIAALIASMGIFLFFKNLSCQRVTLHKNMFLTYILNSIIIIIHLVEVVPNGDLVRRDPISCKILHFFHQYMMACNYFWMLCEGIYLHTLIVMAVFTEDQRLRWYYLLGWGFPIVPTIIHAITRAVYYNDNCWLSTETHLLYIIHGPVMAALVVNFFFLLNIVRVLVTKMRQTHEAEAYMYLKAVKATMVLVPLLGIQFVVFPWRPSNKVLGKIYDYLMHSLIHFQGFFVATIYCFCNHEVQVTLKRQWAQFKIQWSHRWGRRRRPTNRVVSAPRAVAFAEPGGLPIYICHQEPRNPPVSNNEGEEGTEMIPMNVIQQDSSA
How it was run: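 Rat calcitonin receptor is expressed transiently in BHK tk′ts 13 cells cultured in DMEM with 10% FBS. Roughly two days (approximately 48 hours) post-transfection, cells are harvested for membrane preparation.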

[4] = target: T3, rat amylin receptor (rat calcitonin receptor + rat RAMP 3) (Rattus norvegicus, UniProt P32214+Q9JJ73); experiment: ASSAY (VI) binding to the rat amylin receptor; details: for IC50: binding to rat amylin receptor, read-out: rAmylin-R bind IC50
T3 construct: expressed in transfected cells; host or cells: BHK tk'ts 13 (transient, FuGENE 6), membranes
T3 sequence (P32214 25-479 isoform P32214-2 limits assumed): T2 sequence (P32214 25-479 isoform P32214-2 limits assumed)
T3 sequence (Q9JJ73 23-147 partner): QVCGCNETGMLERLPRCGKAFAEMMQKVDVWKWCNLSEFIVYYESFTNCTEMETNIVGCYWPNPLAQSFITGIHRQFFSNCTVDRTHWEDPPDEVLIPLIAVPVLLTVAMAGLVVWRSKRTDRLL
How it was run: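 This assay measured binding to the rat amylin receptor. BHK tk′ts 13 cells were transiently transfected with the rat calcitonin receptor using FuGENE® 6 (Roche), following the manufacturer's recommendations. About 48 hours after transfection, the cells were harvested and membranes were prepared from them for the binding determination.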

[5] = bistrispropane buffer, pH 6.5, read-out: Solubility pH 6.5 Concentration
[6] = bistrispropane buffer, pH 7.5, read-out: Solubility pH 7.5 Concentration
[7] = bistrispropane buffer, pH 6.0, read-out: Solubility pH 6.0 Concentration
[8] = bistrispropane buffer, pH 7.0, read-out: Solubility pH 7.0 Concentration
[9] = glycylglycine buffer, pH 4.0, read-out: Solubility pH 4.0 Concentration
[10] = Table 5, selectivity, hCTR bind IC50 / hAmylin-R bind IC50
[11] = Table 7, human binding selectivity, included for comparison
[12] = Table 7a (preferred compounds), human binding selectivity, included for comparison
[13] = Table 7, rat binding selectivity, rCTR IC50 / rAmylin-R IC50
[14] = Table 7a (preferred compounds), rat binding selectivity, rCTR IC50 / rAmylin-R IC50

## CC[C@H](C)[C@H](NC(=O)[C@H](C)NC(=O)CNC(=O)[C@H](Cc1ccccc1)NC(=O)[C@H](CC(N)=O)NC(=O)[C@@H]1CCCN1C(=O)[C@H](CO)NC(=O)[C@H](CO)NC(=O)[C@H](Cc1c[nH]cn1)NC(=O)[C@H](CCCNC(=N)N)NC(=O)[C@H](CC(C)C)NC(=O)[C@H](Cc1ccccc1)NC(=O)[C@H](CCC(=O)O)NC(=O)[C@H](C)NC(=O)[C@H](CC(C)C)NC(=O)[C@H](CCCNC(=N)N)NC(=O)[C@H](CCC(N)=O)NC(=O)[C@@H](NC(=O)[C@H](C)NC(=O)[C@@H]1CSSC[C@H](NC(=O)[C@@H](N)CCCCNC(=O)CC[C@H](NC(=O)CC[C@H](NC(=O)CCCCCCCCCCCCCCCCCCC(=O)O)C(=O)O)C(=O)O)C(=O)N[C@@H](CC(N)=O)C(=O)N[C@@H]([C@@H](C)O)C(=O)N[C@@H](C)C(=O)N[C@@H]([C@@H](C)O)C(=O)N1)[C@@H](C)O)C(=O)N[C@@H](CC(C)C)C(=O)N[C@@H](CO)C(=O)N[C@@H](CO)C(=O)N[C@H](C(=O)N1CCC[C@H]1C(=O)N[C@H](C(=O)NCC(=O)N1CCC[C@H]1C(=O)N[C@@H](CCC(=O)O)C(=O)N[C@H](C(=O)N[C@@H](Cc1ccc(O)cc1)C(N)=O)[C@@H](C)O)C(C)C)[C@@H](C)O [Example 121] (H-K([γGlu-γGlu-C20 diacid])CNTATCATQRLAEFLRHSSPNFGAILSSTPVGPETY-NH2; disulfide 2-7; N-terminus assumed)
[1]; [5]
  solubility at 18 h: ≥ 200 µM
[1]; [6]
  solubility at 18 h: ≥ 200 µM
[1]; [7]
  solubility at 18 h: ≥ 200 µM
[1]; [8]
  solubility at 18 h: ≥ 200 µM
[1]; bistrispropane buffer, pH 8.0, read-out: Solubility pH 8.0 Concentration
  solubility at 18 h: ≥ 200 µM
[1]; [9]
  solubility at 18 h: ≥ 200 µM
[1]; glycylglycine buffer, pH 5.0, read-out: Solubility pH 5.0 Concentration
  solubility at 18 h: ≥ 200 µM
[2]; [10]
  Ratio hCT/hAmylin binding: 22.6
[2]; Table 5a, selectivity, hCTR bind IC50 / hAmylin-R bind IC50
  Ratio hCT/hAmylin binding: 22.6
[2]; Table 5b, selectivity, hCTR bind IC50 / hAmylin-R bind IC50
  Ratio hCT/hAmylin binding: 22.6
[2]; Table 5c, selectivity, hCTR bind IC50 / hAmylin-R bind IC50
  Ratio hCT/hAmylin binding: 22.6
[2]; [11]
  Ratio hCT/hAmylin binding: 22.6
[2]; [12]
  Ratio hCT/hAmylin binding: 22.6
[2]; ratio of human calcitonin receptor binding IC50 to human amylin receptor binding IC50
  Ratio hCT/hAmylin binding: 22.6
[3]
  IC50: 33.5 nM
[4]; Table 7
  IC50: 0.449 nM
[4]; [13]
  Ratio rCT/rAmylin binding: 74.7
[4]; [14]
  Ratio rCT/rAmylin binding: 74.7
[4]; ratio of rCTR bind IC50 to rAmylin-R bind IC50
  Ratio rCT/rAmylin binding: 74.7

## CC[C@H](C)[C@H](NC(=O)[C@H](C)NC(=O)CNC(=O)[C@@H]1CCCN1C(=O)[C@H](CC(N)=O)NC(=O)[C@H](CC(N)=O)NC(=O)[C@H](CO)NC(=O)[C@H](CO)NC(=O)[C@H](Cc1c[nH]cn1)NC(=O)[C@H](CCCNC(=N)N)NC(=O)[C@H](CC(C)C)NC(=O)[C@H](Cc1ccccc1)NC(=O)[C@H](CCC(=O)O)NC(=O)[C@H](C)NC(=O)[C@H](CC(C)C)NC(=O)[C@H](CCCNC(=N)N)NC(=O)[C@H](CCC(N)=O)NC(=O)[C@@H](NC(=O)[C@H](C)NC(=O)[C@@H]1CSSC[C@H](NC(=O)[C@@H](N)CCCCNC(=O)CC[C@H](NC(=O)CC[C@H](NC(=O)CCCCCCCCCCCCCCCCCCC(=O)O)C(=O)O)C(=O)O)C(=O)N[C@@H](CC(N)=O)C(=O)N[C@@H]([C@@H](C)O)C(=O)N[C@@H](C)C(=O)N[C@@H]([C@@H](C)O)C(=O)N1)[C@@H](C)O)C(=O)N[C@@H](CC(C)C)C(=O)N[C@@H](CO)C(=O)N[C@@H](CO)C(=O)N[C@H](C(=O)N[C@@H](CC(N)=O)C(=O)N[C@H](C(=O)NCC(=O)N1CCC[C@H]1C(=O)N[C@@H](CCC(=O)O)C(=O)N[C@H](C(=O)N[C@@H](Cc1ccc(O)cc1)C(N)=O)[C@@H](C)O)C(C)C)[C@@H](C)O [Example 126] (H-K([γGlu-γGlu-C20 diacid])CNTATCATQRLAEFLRHSSNNPGAILSSTNVGPETY-NH2; disulfide 2-7 (inferred); N-terminus assumed)
[1]; [5]
  solubility at 18 h: 131 µM (≈ 594 µg/mL)
[1]; [6]
  solubility at 18 h: ≥ 200 µM
[1]; [7]
  solubility at 18 h: 64 µM (≈ 290 µg/mL)
[1]; [8]
  solubility at 18 h: 198 µM (≈ 898 µg/mL)
[1]; [9]
  solubility at 18 h: 7 µM (≈ 31.7 µg/mL)
[2]; [10]
  Ratio hCT/hAmylin binding: 7.8
[2]; [11]
  Ratio hCT/hAmylin binding: 7.8
[2]; [12]
  Ratio hCT/hAmylin binding: 7.8
[3]
  IC50: 86.8 nM
[4]; Table 7
  IC50: 0.659 nM
[4]; [13]
  Ratio rCT/rAmylin binding: 131.7
[4]; [14]
  Ratio rCT/rAmylin binding: 131.7
